In US11591369B2, “Alpha(v)beta(6) integrin-binding peptides and methods of use thereof” (priority 2018, dated 2023):
Like-named read-outs stand apart in the source and are kept apart here. Where a SMILES comes first, the peptide text is derived from it. The star is where a group is joined. Benzoyl(4-F) = O=C(c1ccc(F)cc1)*

What was measured:
αvβ6 integrin = biological target: T1, αvβ6 integrin (Homo sapiens, UniProt P06756+P18564); test: Competitive binding ELISA against biotinylated LAP (BtLAP), αvβ6 integrin
T1 construct: All purified integrins were purchased from R&D Systems (MN, USA); purchased R&D Systems (MN, USA)

αvβ3 integrin = biological target: T2, αvβ3 integrin (Homo sapiens, UniProt P05106+P06756); test: Competitive binding ELISA, αvβ3 integrin
T2 construct: All purified integrins were purchased from R&D Systems (MN, USA); purchased R&D Systems (MN, USA)

αvβ8 integrin = biological target: T3, αvβ8 integrin (Homo sapiens, UniProt P06756+P26012); test: Competitive binding ELISA, αvβ8 integrin
T3 construct: All purified integrins were purchased from R&D Systems (MN, USA); purchased R&D Systems (MN, USA)

DX3puroβ6 (αvβ6+) cells = test: [18F]-radiolabeled peptide cell binding and internalization, DX3puroβ6 (αvβ6+) cells; assay type: cell-based, human
[1] = Circular dichroism (CD) spectroscopy; assay type: physicochemical; conditions: for % Helical Content CD Buffer: 25 mM phosphate + 100 mM NaF; for % Helical Content CD Buffer + 30% TFE: buffer with 30% trifluoroethanol; for α-helix formation in CD buffer with TFE: buffer with added TFE, 30%
[2] = tested on: αvβ6-expressing human tumors; conditions: mouse, in vivo; cited from earlier work

Compound | IC50 (αvβ6 integrin) [nM] | binding selectivity for αvβ6 over αvβ3 and αvβ8 integrins (αvβ6 integrin; ELISA IC50 ratio) | IC50 αvβ6 (αvβ6 integrin; competitive ELISA vs BtLAP, mean ± SD, n = 3) | IC50 (αvβ3 integrin) [nM] | IC50 (αvβ8 integrin) [nM] | DX3puroβ6 (αvβ6+)/DX3puro (αvβ6−) selectivity ratio (DX3puroβ6 (αvβ6+) cells) | % Helical Content CD Buffer [1] [%] | % Helical Content CD Buffer + 30% TFE [1] [%] | α-helix formation in CD buffer with TFE [1] | DX3puroβ6 (αvβ6+)/DX3puro (αvβ6−) selectivity ratio (DX3puroβ6 (αvβ6+) cells; cell binding, 1 hour) | binding to DX3puroβ6 (αvβ6+) cells (DX3puroβ6 (αvβ6+) cells; % of total activity, 1 hour, 37° C.) [%] | unmetabolized peptide in urine [2]
CC(C)C[C@H](NC(=O)[C@H](Cc1ccc(O)cc1)NC(=O)[C@@H](NC(=O)[C@H](CC(C)C)NC(=O)[C@H](CC(=O)O)NC(=O)CNC(=O)[C@@H](NC(=O)c1ccc(F)cc1)C(C)C)[C@@H](C)O)C(=O)N[C@@H](CCCCN)C(=O)N[C@@H](CCC(N)=O)C(=O)N[C@@H](CCCCN)C(=O)N[C@H](C(=O)N[C@@H](C)C(=O)N[C@@H](CCCNC(=N)N)C(=O)N[C@H](C(N)=O)[C@@H](C)O)C(C)C [P1Q] | 12 ± 1 | 10,000 :1 | low nanomolar | > 100000 | > 100000 | 10.3 ± 1:1 | 1.6 | 45.1 | α-helices were induced |  |  | 
CC(C)C[C@H](NC(=O)[C@H](Cc1ccc(O)cc1)NC(=O)[C@@H](NC(=O)[C@H](CC(C)C)NC(=O)[C@H](CC(=O)O)NC(=O)CNC(=O)[C@@H](N)C(C)C)[C@@H](C)O)C(=O)N[C@@H](CCCCN)C(=O)N[C@@H](CCCCNC(=O)c1ccc(F)cc1)C(N)=O [P1] (H-VGDLTYLKK(Benzoyl(4-F))-NH2) | 450 ± 60 |  |  | > 100000 | 5300 ± 140 | 1.1 ± 0.1:1 | 6.3 | 9.5 | could not form the helix |  |  | 
CC(C)C[C@H](NC(=O)[C@H](CC(=O)O)NC(=O)CNC(=O)[C@H](CCCNC(=N)N)NC(=O)c1ccc(F)cc1)C(=O)N[C@@H](C)C(=O)N[C@@H](CC(=O)O)C(=O)N[C@@H](CC(C)C)C(=O)N[C@@H](CCCNC(=N)N)C(=O)N[C@@H](CCC(N)=O)C(=O)N[C@@H](CCCCN)C(=O)N[C@H](C(=O)N[C@@H](C)C(=O)N[C@@H](CCCNC(=N)N)C(=O)N[C@H](C(N)=O)[C@@H](C)O)C(C)C [P3Q] ({Benzoyl(4-F)}-RGDLADLRQKVART-NH2) | 4 ± 1 |  |  | > 100000 | 20 ± 3 |  | 14.7 | 30 |  | 11.8 ± 0.4:1 |  | 
CC(C)C[C@H](NC(=O)[C@H](CC(=O)O)NC(=O)CNC(=O)[C@@H](N)CCCNC(=N)N)C(=O)N[C@@H](C)C(=O)N[C@@H](CC(=O)O)C(=O)N[C@@H](CC(C)C)C(=O)N[C@@H](CCCNC(=N)N)C(=O)N[C@@H](CCCCNC(=O)c1ccc(F)cc1)C(N)=O [P3] (H-RGDLADLRK(Benzoyl(4-F))-NH2) | 420 ± 70 |  |  | > 100000 | 200 ± 20 |  | 11.6 | 7 |  | 1.4±0.2 :1 | 10.8±1.4 | 
FB-NAVPNLRGDLQVLAQKVART [A20FMDV2, reference compound] |  |  |  |  |  | 10:1 |  |  |  |  |  | no unmetabolized peptide was detected
